30 compounds from patent US12534452B2, “N-(1H-imidazol-2-yl)benzamide compound and pharmaceutical composition comprising the same as active ingredient” (KAINOS MEDICINE, INC., priority 2019, dated 2026) can be followed below.

In this test the target is IRAK4 (Homo sapiens (Human), UniProt Q9NWZ3). Briefly: In vitro IRAK4 phosphorylation activity assay. The format is biochemical. To be noted: [γ-33P]-ATP, myelin basic protein substrate, 40 minutes at room temperature; categories. On the procedure:
In vitro IRAK4 analysis was performed using N-(1H-imidazol-2-yl)benzamide compounds according to the present invention. All compounds were prepared by dissolving in DMSO. N-(1H-imidazol-2-yl)benzamide compound according to the present invention and other elements for the reaction were added to an assay well. In the standard Kinase Profiler service the preincubation step between the N-(1H-imidazol-2-yl)benzamide compound and kinase was not performed before the reaction.
To the positive control well, all reactants except for the N-(1H-imidazol-2-yl)benzamide compound according to the present invention were added, and DMSO was added to remove the solvent effect. A known control inhibitor having the following structure was added to the blank wells to inhibit kinase activity and establish a base-line.
IRAK4 was incubated with 8 mM MOPS pH 7.0, 0.2 mM EDTA, 0.33 mg/mL myelin basic protein, 10 mM magnesium acetate and [γ-33P]-ATP (specific activity approx. 500 cpm/pmol, concentration as required). The reaction was initiated by the addition of the MgATP mix. After incubation for 40 minutes at room temperature, the reaction was stopped by the addition of 3% phosphoric acid solution. 10 μL of the reaction was then spotted onto a P30 filtermat and washed three times for 5 minutes in 75 mM phosphoric acid and once in methanol prior to drying and scintillation counting.
The results are shown in Table 26 below, where the phosphorylation activity of IC50 values for IRAK4 is shown in categories (A: <50 nM, B: 50-100 nM, C: >100 nM).

Sequence of IRAK4 (Q9NWZ3 whole entry): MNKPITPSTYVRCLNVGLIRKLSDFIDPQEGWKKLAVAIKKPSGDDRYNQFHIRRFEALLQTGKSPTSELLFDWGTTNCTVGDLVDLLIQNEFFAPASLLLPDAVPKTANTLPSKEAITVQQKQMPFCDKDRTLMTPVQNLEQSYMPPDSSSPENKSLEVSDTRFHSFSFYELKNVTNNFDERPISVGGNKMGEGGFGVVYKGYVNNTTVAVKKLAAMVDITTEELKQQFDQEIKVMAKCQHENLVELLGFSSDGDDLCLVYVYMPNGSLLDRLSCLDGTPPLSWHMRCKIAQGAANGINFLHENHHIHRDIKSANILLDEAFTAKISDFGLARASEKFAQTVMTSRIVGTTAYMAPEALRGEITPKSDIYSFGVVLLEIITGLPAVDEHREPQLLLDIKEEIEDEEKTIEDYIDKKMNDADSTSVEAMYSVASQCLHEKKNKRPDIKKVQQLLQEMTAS

As usually defined, the IC50 is the concentration that inhibits the measured activity by half. Read a low IC50 as inhibition by little substance. For `Nc1n[nH]cc1-c1cccc(C(=O)Nc2nc(CCC(=O)Nc3ccccc3)cn2-c2ccccc2)c1` [Example 2, 3-(3-amino-1H-pyrazol-4-yl)-N-(4-(3-oxo-3-(phenylamino)propyl)-1-phenyl-1H-imidazol-2-yl)benzamide], the half-inhibitory concentration (IC50) is > 100 nM.
As for `O=C(CCCc1cn(-c2ccccc2)c(NC(=O)c2cccc(-c3ccc4scnc4c3)c2)n1)NC1CC1` [Example 283, 3-(benzo[d]thiazol-5-yl)-N-(4-(4-(cyclopropylamino)-4-oxobutyl)-1-phenyl-1H-imidazol-2-yl)benzamide], the IC50 was > 100 nM.
With `Cn1cc(-c2cccc(C(=O)Nc3nc(CCCC(=O)N4CCNCC4)cn3-c3ccccc3)c2)cn1` [Example 202, 3-(1-methyl-1H-pyrazol-4-yl)-N-(4-(4-oxo-4-(piperazin-1-yl)butyl)-1-phenyl-1H-imidazol-2-yl)benzamide] the figure was < 50 nM.
Regarding `O=C(Nc1nc(CCCCN2CCCCC2)cn1-c1ccccc1)c1cccc(-c2cn[nH]c2)c1` [Example 113, N-(1-phenyl-4-(4-(piperidin-1-yl)butyl)-1H-imidazol-2-yl)-3-(1H-pyrazol-4-yl)benzamide], the IC50 is < 50 nM.
Regarding `Cn1cc(-c2cccc(C(=O)Nc3nc(CCCC(=O)N4CCC[C@H](N)C4)cn3-c3ccccc3)c2)cn1` [Example 211, (S)—N-(4-(4-(3-aminopiperidin-1-yl)-4-oxobutyl)-1-phenyl-1H-imidazol-2-yl)-3-(1-methyl-1H-pyrazol-4-yl)benzamide], the IC50 was < 50 nM.
With `Cn1ncc2cc(-c3cccc(C(=O)Nc4nc(CCCCCCN5CCCCC5)cn4-c4ccccc4)c3)ccc21` [Example 263, 3-(1-methyl-1H-indazol-5-yl)-N-(1-phenyl-4-(6-(piperidin-1-yl)hexyl)-1H-imidazol-2-yl)benzamide] the figure was 50 to 100 nM.
`CN(C(=O)CCCc1cn(-c2ccccc2)c(NC(=O)c2cccc(-c3cn[nH]c3)c2)n1)C1CC1` [Example 71, N-(4-(4-(cyclopropyl(methyl)amino)-4-oxobutyl)-1-phenyl-1H-imidazol-2-yl)-3-(1H-pyrazol-4-yl)benzamide]: the half-maximal inhibitory concentration (IC50) is < 50 nM.
For the compound `O=C(Nc1nc(CCC(=O)N2CCCC[C@H]2C(F)(F)F)cn1-c1ccccc1)c1cccc(-c2cn[nH]c2)c1` [Example 38, (S)—N-(4-(3-oxo-3-(2-(trifluoromethyl)piperidin-1-yl)propyl)-1-phenyl-1H-imidazol-2-yl)-3-(1H-pyrazol-4-yl)benzamide], the IC50 is < 50 nM.
For `Cn1cc(-c2cccc(C(=O)Nc3nc(CCCC(=O)O)cn3-c3ccccc3)c2)cn1` [Example 140, 4-(2-(3-(1-methyl-1H-pyrazol-4-yl)benzamido)-1-phenyl-1H-imidazol-4-yl)butanoic acid] the value was 50 to 100 nM; for `COC[C@@H]1CCCN1NC(=O)CCc1cn(-c2ccccc2)c(NC(=O)c2cccc(-c3cn[nH]c3)c2)n1` [Example 13, (S)—N-(4-(3-((2-(methoxymethyl)pyrrolidin-1-yl)amino)-3-oxopropyl)-1-phenyl-1H-imidazol-2-yl)-3-(1H-pyrazol-4-yl)benzamide], 50 to 100 nM.
With `O=C(CCCc1cn(-c2ccccc2)c(NC(=O)c2cccc(-c3cnn(C(F)(F)F)c3)c2)n1)NC1CC1` [Example 236, N-(4-(4-(cyclopropylamino)-4-oxobutyl)-1-phenyl-1H-imidazol-2-yl)-3-(1-(trifluoromethyl)-1H-pyrazol-4-yl)benzamide] the figure was < 50 nM; with `O=C(Nc1nc(CCCCCC(=O)N2CCCC2)cn1-c1ccccc1)c1cccc(-c2ccc3[nH]ncc3c2)c1` [Example 240, 3-(1H-indazol-5-yl)-N-(4-(6-oxo-6-(pyrrolidin-1-yl)hexyl)-1-phenyl-1H-imidazol-2-yl)benzamide], < 50 nM; with `O=C(CCCCCc1cn(-c2ccccc2)c(NC(=O)c2cccc(-c3ccc4[nH]ncc4c3)c2)n1)NC1CC1` [Example 238, N-(4-(6-(cyclopropylamino)-6-oxohexyl)-1-phenyl-1H-imidazol-2-yl)-3-(1H-indazol-5-yl)benzamide], < 50 nM.
With `CN1CCCN(C(=O)CCCc2cn(-c3ccccc3)c(NC(=O)c3cccc(-c4cnn(C)c4)c3)n2)CC1` [Example 183, N-(4-(4-(4-methyl-1,4-diazepan-1-yl)-4-oxobutyl)-1-phenyl-1H-imidazol-2-yl)-3-(1-methyl-1H-pyrazol-4-yl)benzamide] the figure was < 50 nM.
Consider `CN1CCN(C(=O)CCCCCc2cn(-c3ccccc3)c(NC(=O)c3cccc(-c4ccc5ncsc5c4)c3)n2)CC1` [Example 285, 3-(benzo[d]thiazol-6-yl)-N-(4-(6-(4-methylpiperazin-1-yl)-6-oxohexyl)-1-phenyl-1H-imidazol-2-yl)benzamide], for which the IC50 is < 50 nM.
For `COC(=O)CCCCCc1cn(-c2ccccc2)c(NC(=O)c2cccc(-c3cn[nH]c3)c2)n1` [Example 91, methyl 6-(2-(3-(1H-pyrazol-4-yl)benzamido)-1-phenyl-1H-imidazol-4-yl)hexanoate] the value was < 50 nM; for `O=C(O)CCCCc1cn(-c2ccccc2)c(NC(=O)c2cccc(-c3cn[nH]c3)c2)n1` [Example 78, 5-(2-(3-(1H-pyrazol-4-yl)benzamido)-1-phenyl-1H-imidazol-4-yl)pentanoic acid], < 50 nM; for `CN1CCCN(C(=O)CCc2cn(-c3ccccc3)c(NC(=O)c3cccc(-c4cnn(C)c4)c3)n2)CC1` [Example 195, N-(4-(3-(4-methyl-1,4-diazepan-1-yl)-3-oxopropyl)-1-phenyl-1H-imidazol-2-yl)-3-(1-methyl-1H-pyrazol-4-yl)benzamide], < 50 nM.
Regarding `O=C(Nc1nc(CCCCCN2CCCCC2)cn1-c1ccccc1)c1cccc(-c2cn[nH]c2)c1` [Example 118, N-(1-phenyl-4-(5-(piperidin-1-yl)pentyl)-1H-imidazol-2-yl)-3-(1H-pyrazol-4-yl)benzamide], the IC50 is < 50 nM.
As to `Nc1ccc(-c2cccc(C(=O)Nc3nc(CCCCCCN4CCCC4=O)cn3-c3ccccc3)c2)cn1` [Example 276, 3-(6-aminopyridin-3-yl)-N-(4-(6-(2-oxopyrrolidin-1-yl)hexyl)-1-phenyl-1H-imidazol-2-yl)benzamide], the IC50 was < 50 nM.
For `C[C@H]1CCCCN1C(=O)CCCCCc1cn(-c2ccccc2)c(NC(=O)c2cccc(-c3cn[nH]c3)c2)n1` [Example 95, (S)—N-(4-(6-(2-methylpiperidin-1-yl)-6-oxohexyl)-1-phenyl-1H-imidazol-2-yl)-3-(1H-pyrazol-4-yl)benzamide] the value was < 50 nM; for `O=C(CCCCCc1cn(-c2ccccc2)c(NC(=O)c2cccc(-c3ccc4scnc4c3)c2)n1)NC1CC1` [Example 290, 3-(benzo[d]thiazol-5-yl)-N-(4-(6-(cyclopropylamino)-6-oxohexyl)-1-phenyl-1H-imidazol-2-yl)benzamide], > 100 nM.
`CNC(=O)CCCCCc1cn(-c2ccccc2)c(NC(=O)c2cccc(-c3cn[nH]c3)c2)n1` [Example 94, N-(4-(6-(methylamino)-6-oxohexyl)-1-phenyl-1H-imidazol-2-yl)-3-(1H-pyrazol-4-yl)benzamide]: the half-maximal inhibitory concentration (IC50) is < 50 nM.
As for `COC(=O)CCCc1cn(-c2ccccc2)c(NC(=O)c2cccc(-c3cn[nH]c3)c2)n1` [Example 58, methyl 4-(2-(3-(1H-pyrazol-4-yl)benzamido)-1-phenyl-1H-imidazol-4-yl)butanoate], the IC50 is < 50 nM.
For `Cn1cc(-c2cccc(C(=O)Nc3nc(CCCC(=O)Nc4ccncc4)cn3-c3ccccc3)c2)cn1` [Example 150, 3-(1-methyl-1H-pyrazol-4-yl)-N-(4-(4-oxo-4-(pyridin-4-ylamino)butyl)-1-phenyl-1H-imidazol-2-yl)benzamide] the value was < 50 nM.
In turn, `O=C(Nc1nc(CCCCCCN2CCCCC2)cn1-c1ccccc1)c1cccc(-c2ccc3[nH]ccc3c2)c1` [Example 253, 3-(1H-indol-5-yl)-N-(1-phenyl-4-(6-(piperidin-1-yl)hexyl)-1H-imidazol-2-yl)benzamide] came in with an IC50 of 50 to 100 nM.
For `COC(=O)CCCCc1cn(-c2ccccc2)c(NC(=O)c2cccc(-c3cn[nH]c3)c2)n1` [Example 77, methyl 5-(2-(3-(1H-pyrazol-4-yl)benzamido)-1-phenyl-1H-imidazol-4-yl)pentanoate] the value was < 50 nM; for `O=C(CCCc1cn(-c2ccccc2)c(NC(=O)c2cccc(-c3cn[nH]c3)c2)n1)NC1CC1` [Example 68, N-(4-(4-(cyclopropylamino)-4-oxobutyl)-1-phenyl-1H-imidazol-2-yl)-3-(1H-pyrazol-4-yl)benzamide], < 50 nM.
For the compound `CN1CCN(CCNC(=O)CCCc2cn(-c3ccccc3)c(NC(=O)c3cccc(-c4cnn(C)c4)c3)n2)CC1` [Example 187, 3-(1-methyl-1H-pyrazol-4-yl)-N-(4-(4-((2-(4-methylpiperazin-1-yl)ethyl)amino)-4-oxobutyl)-1-phenyl-1H-imidazol-2-yl)benzamide], the IC50 is < 50 nM.
For `Cn1cc(-c2cccc(C(=O)Nc3nc(CCCCN4CCCCC4)cn3-c3ccccc3)c2)cn1` [Example 219, 3-(1-methyl-1H-pyrazol-4-yl)-N-(1-phenyl-4-(4-(piperidin-1-yl)butyl)-1H-imidazol-2-yl)benzamide] the value was < 50 nM.
